Assay results from patent publication US6328998A, “Composition comprising L-carnitine or an alkanoyl L-carnitine and long-chain alkanols” (Sigma-Tau Industrie Farmaceutiche Riunite S.p.A., priority 1997, dated 2001).

What was measured:
[1] = test system: ATP content of the papillary muscle; test: ATP concentrations in papillary muscle of rabbits with induced hypoxia; format: in vivo, New Zealand rabbits; conditions: L-carnitine 100 mg/kg, hexacosanol 10 mg/kg or both, i.v. daily for 3 days; for ATP content after hypoxia: 60 min of hypoxia, controls 0.45 ± 0.03; for ATP content before hypoxia: normal perfusion 90 min, controls 1.65 ± 0.28
Description: These tests were performed in New Zealand rabbits with a mean body weight of 2 kg, receiving daily intravenous injections of a solution containing 100 mg/kg of L-carnitine or 10 mg/kg of hexacosanol, or of the two substances combined at the same doses, for 3 consecutive days. A group of animals received no treatment and served as the control group.
All the animals treated were sacrificed along with the controls at the end of the third day of treatment two hours after the last injection. The hearts were removed and equal sections of papillary muscle measuring 1 mm in diameter and 4-5 mm in thickness were isolated. These tissues were perfused in a thermostatic bath with a (100%) saturated O2 solution. Experimental hypoxia conditions were induced by introducing N2 (100%) into the bath in place of O2. […] The analysis was done on tissue samples maintained under normal perfusion conditions for 90 min and after 60 min of hypoxia.

blood cholesterol = test: Experimental cholesterolaemia tests; format: in vivo; conditions: for total cholesterol: daily for six weeks with cholesterolaemia-lowering diet, L-carnitine 100 mg/kg, hexacosanol 10 mg/kg or both, controls 95.2 ± 5.4, hypercholesterolaemic controls 285.7 ± 11.2; for cholesterolaemia-lowering action (in words): six weeks
Excerpt: In experimental cholesterolaemia, too, a marked synergistic effect of the L-carnitine plus hexacosanol combination was detected. In these tests, the experimental cholesterolaemia was induced according to the method described by Sirtori (Sirtori CR, Atherosclerosis 26-27, 1977). Treatment both With L-carnitine and hexacosanol, as well as with the two compounds in combination, was continued daily for six weeks, in conjunction with a cholesterolaemia-lowering diet. On completing the six weeks of treatment, blood cholesterol was assayed both in control animals put on a cholesterolaemia-lowering diet alone and in animals treated with L-carnitine, or with hexacosanol, or with the two compounds in combination. Using the assay method described by Roschlan (Roschlan P, Clin Chem Clin Biochem 12: 403, 1975).

[2] = test system: left ventricular arrhythmias due to myocardial anoxia; test: Cardiac anoxia induced by coronary ligation (left ventricular arrhythmias); format: in vivo, Male Wistar rats; conditions: for Start of arrhythmias / Total ectopic contractions during 30 min after coronary ligation: L-carnitine 100 mg/kg, hexacosanol 10 mg/kg or both into left ventricle 15 min before ligation; for Start of arrhythmias: controls 4-7; for Total ectopic contractions during 30 min after coronary ligation: controls 992 ± 118; for ability to reduce ectopic contractions (in words): administered alone
Description: These tests were performed to evaluate the protective action of L-carnitine and hexacosanol and their combination on left ventricular arrhythmias due to myocardial anoxia induced by coronary ligation according to the technique described by Selych et cal. (Angiology 11-398, 1960) and by Clark et al. (J Pharmacol Methods 3-357, 1980). Male Wistar rats with a mean body weight of 350-400 g were submitted to surgical occlusion of the left coronary artery. Arrhythmias set in within 4-7 min of coronary ligation. Ventricular ectopic contractions were then counted during a period of 30 min both in a group of control rats and in the groups of rats receiving slow injection of a solution containing L-carnitine (100 mg/kg), hexacosanol (10 mg/kg) or the two substances in combination at the same doses into the left ventricle 15 min before ligation.

[3] = test system: atherosclerotic lesions (abdominal aorta); test: Experimental atherosclerosis tests (atherogenic diet); format: in vivo, Wistar male rats; conditions: abdominal aorta thickness and Sudan IV staining, 1- to 5-point score
Description: D2 200 m STU/g diet. The anti-atherogenic effect of both L-carnitine and hexacosanol were evaluated by using morphometric methods to measure the thickness of the abdominal aorta and the intensity of the staining induced by Sudan IV, with a 1- to 5-point scoring system, according to the degree of severity.

platelet aggregation = test: Platelet aggregation inhibition tests (collagen-induced); format: cell-based, healthy volunteers; conditions: collagen 2.5 ng/mL, 10 min incubation
Description: The tests were performed using plasma from healthy volunteers containing at least 300,000 platelets/mm^3.
The platelet count was done using a CA 580A Platelet Counter (Delcon). Platelet aggregation was induced using collagen as the aggregating agent at doses of 2.5 and 5 ng/mL according to the technique described by Born and Cross (Born YVR, Cross M, J Physiol 26: 25, 1963).
Platelet aggregation was determined photometrically (Born VJR, Nature 194: 927, 1962) using an Elvi 840 aggregometer.
Platelet aggregation was measured in basal conditions and after 10 min of incubation with L-carnitine, hexacosanol and the L-carnitine-hexacosanol combination.

[4] = Acute oral toxicity in mice; format: in vivo; conditions: 2 g/kg L-carnitine or 500 mg/kg hexacosanol, alone or in combination
[5] = Acute oral toxicity in rats; format: in vivo; conditions: 2 g/kg L-carnitine or 500 mg/kg hexacosanol, alone or in combination
[6] = Prolonged daily administration (30 days) tolerability, body weight, blood chemistry and histology; format: in vivo, rats and mice; conditions: daily for 30 days; carnitine 250 mg/kg or hexacosanol 20 mg/kg, alone or in combination
Excerpt: Moreover, no abnormalities were found at histological examination of the parenchyma of the main organs (heart, lungs, kidneys, adrenal glands and pancreas).

Compound	ATP content after hypoxia [1] [µmol/g tissue]	ATP content before hypoxia [1] [µmol/g tissue]	total cholesterol (blood cholesterol) [mg/dL]	cholesterolaemia-lowering action (in words) (blood cholesterol)	Start of arrhythmias [2] [min]	Total ectopic contractions during 30 min after coronary ligation [2]	ability to reduce ectopic contractions (in words) [2]	severity/occurrence of atherosclerotic lesions (in words) [3]	IC50 (platelet aggregation; Homo sapiens, Platelet, 10 min, read-out: ED50, inhibition of platelet aggregation induced by collagen) [ng/mL]	effect on platelet aggregation induced by collagen (in words) (platelet aggregation)	mortality [4]	signs of toxicity [4]	mortality [5]	signs of toxicity [5]	signs of toxic reactions or of poor tolerability [6]
CCCCCCCCCCCCCCCCCCCCCCCCCCO [Hexacosanol]	0.77 ± 0.05	1.7 ± 0.3	268.5 ± 5.6	fairly modest	5 to 7	810 ± 190	only a very limited ability to reduce ectopic contractions	capable of reducing the severity of the atherosclerotic lesions	5.5	only partly inhibiting the platelet aggregation	–	–	–	–	–
C[N+](C)(C)C[C@H](O)CC(=O)[O-] [L-carnitine]	0.67 ± 0.02	1.77 ± 0.25	265.5 ± 6.1	fairly modest	4 to 7	860 ± 202	only a very limited ability to reduce ectopic contractions	capable of reducing the severity of the atherosclerotic lesions	–	not changed	without any mortality	without any evident signs of toxicity	without any mortality	without any evident signs of toxicity	failed to produce any signs of toxic reactions or of poor tolerability
